Experimental data published in ChEMBL document CHEMBL1201862, “PubChem BioAssay data set” (2004).
Active and inactive are the calls of the source.

Key:
[1] = target: Phosphomannomutase 2 (Homo sapiens, UniProt O15305); assay: Counter screen SAR assay for PMM2 inhibitors via a fluorescence intensity assay. [Related pubchem assays (depositor defined):AID1545, AID1574]
[2] = target: Phosphoethanolamine/phosphocholine phosphatase (Homo sapiens, UniProt Q8TCT1); assay: SAR assay for compounds that inhibit PHOSPHO1. [Related pubchem assays (depositor defined):AID1545, AID1565, AID1574]
Chain of Phosphoethanolamine/phosphocholine phosphatase (Q8TCT1 whole entry): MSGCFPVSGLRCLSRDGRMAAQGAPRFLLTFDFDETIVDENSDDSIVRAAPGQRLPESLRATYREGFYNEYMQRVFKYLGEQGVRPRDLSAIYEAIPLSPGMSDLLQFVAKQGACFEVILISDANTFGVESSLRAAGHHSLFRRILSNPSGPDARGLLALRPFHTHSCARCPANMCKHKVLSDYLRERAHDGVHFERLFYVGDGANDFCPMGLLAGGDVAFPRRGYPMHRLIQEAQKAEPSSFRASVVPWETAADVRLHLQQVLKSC

[3] = target: T1, Kappa-type opioid receptor (Homo sapiens, UniProt P41145); assay: kappa opioid receptor activation potency – imaging, image-based, SAR follow-up (AID 2359); format: functional
T1 sequence (P41145 whole entry): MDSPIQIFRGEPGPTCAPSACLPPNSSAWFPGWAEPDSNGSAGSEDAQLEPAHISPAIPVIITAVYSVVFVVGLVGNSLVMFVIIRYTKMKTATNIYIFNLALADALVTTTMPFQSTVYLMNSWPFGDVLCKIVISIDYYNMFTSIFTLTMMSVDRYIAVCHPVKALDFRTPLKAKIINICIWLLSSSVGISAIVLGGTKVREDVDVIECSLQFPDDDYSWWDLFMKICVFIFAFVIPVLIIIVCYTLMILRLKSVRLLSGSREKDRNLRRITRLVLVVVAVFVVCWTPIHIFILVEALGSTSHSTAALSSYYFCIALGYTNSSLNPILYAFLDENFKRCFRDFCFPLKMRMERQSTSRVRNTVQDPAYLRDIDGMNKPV

[4] = target: T1, Kappa-type opioid receptor; assay: kappa opioid receptor blockers, cell-based, luminescence, beta-arrestin, SAR follow-up (AID 2285); format: functional
[5] = target: T2, Mu-type opioid receptor (Homo sapiens, UniProt P35372); assay: mu opioid receptor activators, image-based, SAR follow-up (AID 2352); format: functional
T2 sequence (P35372 whole entry): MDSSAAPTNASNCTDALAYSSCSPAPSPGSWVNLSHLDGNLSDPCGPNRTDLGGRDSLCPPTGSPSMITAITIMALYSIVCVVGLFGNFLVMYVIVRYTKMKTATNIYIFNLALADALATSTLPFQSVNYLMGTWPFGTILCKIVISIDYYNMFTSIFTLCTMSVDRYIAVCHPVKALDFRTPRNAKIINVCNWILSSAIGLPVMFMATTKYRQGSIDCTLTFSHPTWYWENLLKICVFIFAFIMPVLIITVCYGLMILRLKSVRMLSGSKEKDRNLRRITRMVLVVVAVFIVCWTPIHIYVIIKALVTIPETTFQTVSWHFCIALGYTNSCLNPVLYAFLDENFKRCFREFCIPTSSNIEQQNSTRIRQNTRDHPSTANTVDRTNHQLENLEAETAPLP

[6] = target: Tyrosine-protein phosphatase non-receptor type 7 (Homo sapiens, UniProt P35236); assay: SAR analysis of chemical inhibitors of HePTP using a Fluorescent assay - Set 2. [Related pubchem assays (depositor defined):AID1059, AID1077, AID1661, AID2085, AID521]; format: functional
Chain of Tyrosine-protein phosphatase non-receptor type 7 (P35236 whole entry): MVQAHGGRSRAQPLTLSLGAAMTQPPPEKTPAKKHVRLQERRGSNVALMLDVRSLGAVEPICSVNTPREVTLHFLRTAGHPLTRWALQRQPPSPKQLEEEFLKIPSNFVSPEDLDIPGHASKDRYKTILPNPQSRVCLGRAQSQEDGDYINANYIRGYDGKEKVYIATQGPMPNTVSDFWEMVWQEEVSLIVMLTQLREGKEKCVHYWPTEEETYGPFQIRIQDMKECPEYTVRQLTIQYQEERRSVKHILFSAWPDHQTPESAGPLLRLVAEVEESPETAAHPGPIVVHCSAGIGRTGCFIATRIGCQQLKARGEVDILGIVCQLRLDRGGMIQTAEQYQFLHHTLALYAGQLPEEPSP

[7] = target: Dual specificity protein phosphatase 3 (Homo sapiens, UniProt P51452); assay: SAR VHR1 Fluorescent Assay for In Vitro dose response studies Set 2. [Related pubchem assays (depositor defined):AID1654, AID1661, AID1878]; format: functional
Chain of Dual specificity protein phosphatase 3 (P51452 whole entry): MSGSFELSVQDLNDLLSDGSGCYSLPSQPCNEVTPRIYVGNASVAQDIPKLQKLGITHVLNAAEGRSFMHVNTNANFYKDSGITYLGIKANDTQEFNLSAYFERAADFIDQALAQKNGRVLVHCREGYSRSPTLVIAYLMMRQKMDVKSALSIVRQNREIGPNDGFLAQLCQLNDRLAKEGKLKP

[8] = target: T3, Delta-type opioid receptor (Homo sapiens, UniProt P41143); assay: DOR agonists, SAR follow-up, image-based (AID 2370); format: functional
T3 sequence (P41143 whole entry): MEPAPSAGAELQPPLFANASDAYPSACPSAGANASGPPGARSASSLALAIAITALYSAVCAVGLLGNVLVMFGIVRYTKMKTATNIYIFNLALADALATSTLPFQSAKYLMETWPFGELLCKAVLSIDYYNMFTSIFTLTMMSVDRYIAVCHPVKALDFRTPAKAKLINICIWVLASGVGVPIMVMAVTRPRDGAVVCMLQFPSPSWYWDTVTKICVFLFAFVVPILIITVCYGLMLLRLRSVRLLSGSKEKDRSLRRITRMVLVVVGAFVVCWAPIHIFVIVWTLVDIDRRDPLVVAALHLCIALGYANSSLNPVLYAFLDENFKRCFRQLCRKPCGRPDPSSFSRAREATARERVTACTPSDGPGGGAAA

[9] = target: T2, Mu-type opioid receptor; assay: mu opioid receptor blockers – image-based, SAR follow-up (AID 2420); format: functional;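 further: compounds added before stimulation of receptor with agonist DAMGO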
[10] = target: T3, Delta-type opioid receptor; assay: delta opioid receptor blockers – image-based, SAR follow-up (AID 2357); format: functional
[11] = target: T1, Kappa-type opioid receptor; assay: kappa opioid receptor blockers, image-based, SAR follow-up (AID 2348); format: functional
[12] = target: Intestinal-type alkaline phosphatase (Homo sapiens, UniProt P09923); assay: human intestinal alkaline phosphatase activators, dose response, biochemical, luminescence, uHTS hits (AID 463120); format: functional
Chain of Intestinal-type alkaline phosphatase (P09923 whole entry): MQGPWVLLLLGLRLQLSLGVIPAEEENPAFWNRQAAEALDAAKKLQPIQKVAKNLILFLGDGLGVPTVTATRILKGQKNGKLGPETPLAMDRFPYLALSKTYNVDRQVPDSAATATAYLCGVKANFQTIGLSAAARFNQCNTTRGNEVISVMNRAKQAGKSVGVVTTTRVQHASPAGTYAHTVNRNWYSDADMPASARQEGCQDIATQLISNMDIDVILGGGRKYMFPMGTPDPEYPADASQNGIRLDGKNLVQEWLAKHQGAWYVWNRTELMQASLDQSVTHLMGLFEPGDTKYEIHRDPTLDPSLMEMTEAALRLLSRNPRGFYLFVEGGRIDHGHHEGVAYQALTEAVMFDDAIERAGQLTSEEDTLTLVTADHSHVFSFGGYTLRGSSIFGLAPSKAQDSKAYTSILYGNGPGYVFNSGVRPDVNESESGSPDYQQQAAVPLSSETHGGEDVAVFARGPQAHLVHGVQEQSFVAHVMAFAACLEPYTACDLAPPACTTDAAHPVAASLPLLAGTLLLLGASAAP

[13] = tested on: HEK293; assay: NOD2 signaling inhibitors in MDP-stimulated cells, cell-based, uHTS, luminescence (AID 2001); format: functional; details: Homo sapiens
[14] = target: Nucleotide-binding oligomerization domain-containing protein 2 (Homo sapiens, UniProt Q9HC29); assay: inhibition of NOD2-driven NF-kB reporter – cell-based, luminescence, uHTS, HEK293 (AID 1566); format: functional
Chain of Nucleotide-binding oligomerization domain-containing protein 2 (Q9HC29 whole entry, the tested form may be a part): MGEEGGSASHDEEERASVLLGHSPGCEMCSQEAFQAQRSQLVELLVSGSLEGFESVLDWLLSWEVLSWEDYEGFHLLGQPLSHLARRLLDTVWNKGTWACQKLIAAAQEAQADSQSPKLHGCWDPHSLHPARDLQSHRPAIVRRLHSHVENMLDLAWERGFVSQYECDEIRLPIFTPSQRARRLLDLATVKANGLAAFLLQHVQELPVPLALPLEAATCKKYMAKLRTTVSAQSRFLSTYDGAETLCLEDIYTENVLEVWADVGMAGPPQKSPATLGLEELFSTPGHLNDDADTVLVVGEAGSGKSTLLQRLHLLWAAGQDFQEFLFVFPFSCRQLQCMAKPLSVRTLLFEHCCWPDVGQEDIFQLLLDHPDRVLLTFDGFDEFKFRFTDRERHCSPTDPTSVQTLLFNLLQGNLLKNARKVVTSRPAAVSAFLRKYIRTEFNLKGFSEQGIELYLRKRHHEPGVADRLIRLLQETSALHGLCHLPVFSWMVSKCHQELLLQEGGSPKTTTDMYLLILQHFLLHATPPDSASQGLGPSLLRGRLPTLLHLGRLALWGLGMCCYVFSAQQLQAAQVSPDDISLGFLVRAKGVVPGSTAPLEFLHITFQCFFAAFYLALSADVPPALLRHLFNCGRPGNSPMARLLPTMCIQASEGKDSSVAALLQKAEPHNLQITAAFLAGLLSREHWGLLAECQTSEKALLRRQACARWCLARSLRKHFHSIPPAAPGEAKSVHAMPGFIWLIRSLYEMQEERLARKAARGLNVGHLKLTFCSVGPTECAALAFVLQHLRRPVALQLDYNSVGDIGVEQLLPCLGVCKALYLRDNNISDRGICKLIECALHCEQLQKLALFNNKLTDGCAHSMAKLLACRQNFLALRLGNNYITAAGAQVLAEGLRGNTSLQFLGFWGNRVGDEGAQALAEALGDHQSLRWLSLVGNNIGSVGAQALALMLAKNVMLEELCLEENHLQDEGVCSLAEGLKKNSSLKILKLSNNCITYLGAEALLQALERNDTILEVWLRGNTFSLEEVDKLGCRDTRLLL

[15] = cells; format: functional, cell-based
[16] = tested on: HEK293; assay: inhibition of NOD1-driven NF-kB reporter – cell-based, luminescence, uHTS, primary screen (AID 1578); format: functional; details: Homo sapiens
[17] = tested on: HEK293; assay: cells; format: functional, cell-based; details: Homo sapiens
[18] = cells; format: functional, cell-based; remark: listed apart in the source
[19] = tested on: HEK293; assay: cells; format: functional, cell-based; details: Homo sapiens; remark: listed apart in the source
[20] = tested on: HEK293; assay: cells; format: functional, cell-based; details: Homo sapiens; remark: listed apart in the source
[21] = DRD fibroblast viability loss – cell-based, non-viral oncogenic, luminescence, dose response (AID 1934); format: functional; details: Homo sapiens
[22] = tested on: Vero; assay: cells; format: functional; details: Chlorocebus sabaeus
[23] = tested on: BJ; assay: BJ-TERT fibroblast viability loss – cell-based, RAS-independent, luminescence, dose response (AID 1933); format: functional; details: Homo sapiens
[24] = tested on: Streptococcus; assay: GAS UMAA2166 growth inhibition – luminescence, BacTiterGlo, counter-screen for streptokinase expression inhibitor project, dose response (AID 1915); format: functional, organism-based;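 further: potency for reduction of bacterial viability or growth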
[25] = cells; format: functional
[26] = tested on: INS1; assay: INS-1E survival protection against cytokine death – cell-based, luminescence, retest, dose response (AID 449756); format: functional; details: Rattus norvegicus;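 further: cell death triggered by IL-1 beta plus TNF-alpha plus IFN-gamma mixture; protective hits raise ATP signal compared with cytokine alone wells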
[27] = THP-1 cell cytotoxicity, dose response, cytotoxicity control for non-replicating M. tuberculosis project (AID 489025); format: functional
[28] = HepG2 cell cytotoxicity, dose response, cytotoxicity control for non-replicating M. tuberculosis project (AID 489018); format: functional; details: Mycobacterium tuberculosis
[29] = Vero E6 cell cytotoxicity, dose response, cytotoxicity control for non-replicating M. tuberculosis project, secondary assay (AID 492998); format: functional, VeroE6; details: Vero C1008
[30] = tested on: BJ; assay: growth inhibition of engineered Ras-driven BJ cells – cell-based, alamar blue fluorescence, cherrypicked samples, dose response (AID 2631); format: functional; details: Homo sapiens;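 further: confirmatory dose-response assay in RAS-dependent BJ fibroblasts engineered with TERT, LT and ST, with cytotoxicity read by fluorescence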
[31] = target: T4, Microphthalmia-associated transcription factor (Homo sapiens, UniProt O75030); assay: reducers of TRPM1 reporter luminescence, concentration series – cell-based, SK-MEL-5, cherry-picked, set 3, MITF inhibitor project, dose response (AID 493073); format: functional;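 further: SK-MEL-5 melanoma cells with luciferase driven by the MITF target TRPM1 promoter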
T4 sequence (O75030 whole entry): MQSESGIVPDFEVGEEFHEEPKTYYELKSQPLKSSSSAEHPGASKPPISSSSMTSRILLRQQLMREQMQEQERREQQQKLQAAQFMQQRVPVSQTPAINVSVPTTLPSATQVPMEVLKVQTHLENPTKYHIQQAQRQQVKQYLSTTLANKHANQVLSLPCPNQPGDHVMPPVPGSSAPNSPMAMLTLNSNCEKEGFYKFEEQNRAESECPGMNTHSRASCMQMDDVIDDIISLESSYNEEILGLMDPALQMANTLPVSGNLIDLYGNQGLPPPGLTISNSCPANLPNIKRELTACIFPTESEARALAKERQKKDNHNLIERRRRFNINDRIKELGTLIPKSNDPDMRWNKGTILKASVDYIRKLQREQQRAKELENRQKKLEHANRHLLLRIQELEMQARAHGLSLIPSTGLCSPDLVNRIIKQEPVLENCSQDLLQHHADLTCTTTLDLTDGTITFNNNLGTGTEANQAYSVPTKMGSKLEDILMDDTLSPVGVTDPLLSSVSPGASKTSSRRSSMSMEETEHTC

[32] = tested on: BJ; assay: cells; format: functional, cell-based; details: Homo sapiens
[33] = tested on: Streptococcus sp. 'group A'; assay: Streptococcus pyogenes SK(-)GAS viability under kanamycin – luminescence, BacTiterGlo, confirmation, counter-screen for streptokinase expression inhibitor project, dose response (AID 1900); format: functional, organism-based
[34] = tested on: BJ; assay: BJ-TERT-LT-ST fibroblast viability loss – cell-based, RAS-independent, luminescence, dose response (AID 1935); format: functional; details: Homo sapiens;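 further: BJ fibroblasts immortalized with TERT plus LT and ST oncogenes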
[35] = target: T5, Coagulation factor XII (Homo sapiens, UniProt P00748); assay: Factor XIIa Dose Response Confirmation from Single Well HTS. [Related pubchem assays (depositor defined):AID701]; format: functional
T5 sequence (P00748 whole entry): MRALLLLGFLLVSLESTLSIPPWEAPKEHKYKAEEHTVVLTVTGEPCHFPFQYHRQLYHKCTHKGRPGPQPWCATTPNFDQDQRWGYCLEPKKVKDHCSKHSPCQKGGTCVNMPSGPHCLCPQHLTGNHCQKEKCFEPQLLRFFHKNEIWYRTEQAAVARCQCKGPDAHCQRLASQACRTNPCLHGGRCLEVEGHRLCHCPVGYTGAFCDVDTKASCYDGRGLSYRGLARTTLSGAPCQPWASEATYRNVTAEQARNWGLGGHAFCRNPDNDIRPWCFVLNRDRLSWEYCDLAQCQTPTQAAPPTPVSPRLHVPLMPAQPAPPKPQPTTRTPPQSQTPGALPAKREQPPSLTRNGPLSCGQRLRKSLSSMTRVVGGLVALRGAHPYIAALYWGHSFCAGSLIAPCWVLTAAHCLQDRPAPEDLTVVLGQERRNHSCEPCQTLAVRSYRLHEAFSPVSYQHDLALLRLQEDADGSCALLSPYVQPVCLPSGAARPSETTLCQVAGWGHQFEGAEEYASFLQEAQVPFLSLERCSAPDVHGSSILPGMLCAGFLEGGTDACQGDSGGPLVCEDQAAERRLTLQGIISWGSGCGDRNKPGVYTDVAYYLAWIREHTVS

Chain of Phosphomannomutase 2 (O15305 whole entry): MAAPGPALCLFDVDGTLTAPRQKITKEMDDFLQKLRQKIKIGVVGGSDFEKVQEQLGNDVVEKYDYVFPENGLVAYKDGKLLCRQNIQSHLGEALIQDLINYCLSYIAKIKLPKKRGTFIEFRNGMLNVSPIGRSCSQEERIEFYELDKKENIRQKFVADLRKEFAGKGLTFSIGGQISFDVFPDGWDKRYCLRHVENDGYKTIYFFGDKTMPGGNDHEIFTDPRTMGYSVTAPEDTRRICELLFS

CC(C)(C)c1ccc(-n2sc3ccccc3c2=O)cc1
IC50 [1]: 82.5 µM (active) | IC50 [2]: 54.3 µM (inactive)

O=C(NC(NC(=S)Nc1ccccc1)C(Cl)(Cl)Cl)OCc1ccccc1 (configuration not stated)
EC50 [3]: > 32 µM (inactive) | IC50 [4]: > 10 µM (inactive) | EC50 [5]: > 32 µM (inactive) | IC50 [6]: > 100 µM (inactive) | IC50 [7]: > 100 µM (inactive) | EC50 [8]: > 32 µM (inactive) | IC50 [9]: > 32 µM (inactive) | IC50 [10]: > 32 µM (inactive) | IC50 [11]: 17.6 µM (inactive)

Cc1ccc(Cl)cc1NC(=O)C(=O)N/N=C/c1ccc2c(c1)OCO2
EC50 [12]: 29.6 µM (active)

O=C(N/N=C/c1ccccn1)c1ccc(Cl)cc1
IC50 [13]: 7.14 µM (inactive) | EC50 [14]: > 20 µM (inactive) | EC50 [15]: > 350 µM (not active) | EC50 [16]: > 20 µM (inactive) | IC50 [17]: > 20 µM (inactive) | EC50 [18]: > 350 µM (not active) | IC50 [19]: > 20 µM (inactive) | IC50 [20]: > 20 µM (inactive)

COc1cccc(C(=O)N/N=C(/c2ccccc2)c2ccccn2)c1
EC50 [21]: 2.82 µM (active) | EC50 [15]: 9.7 µM (active) | CC50 [22]: 2.36 µM (active) | EC50 [23]: 2.69 µM (active) | EC50 [24]: 18 µM (active) | IC50 [25]: 2.04 µM (active) | AC50 [26]: 0.745 µM (active) | EC50 [18]: > 350 µM (not active) | CC50 [27]: 0.844 µM (active) | CC50 [28]: 11.3 µM (active) | CC50 [29]: 1.98 µM (active) | EC50 [30]: 1.45 µM (active) | AC50 [31]: 5.8 µM (active) | EC50 [32]: 4.58 µM (active) | EC50 [33]: 14.2 µM (active) | EC50 [34]: 3.26 µM (active)

CC(/N=c1\ccccn1C(=O)Nc1cccc(C(F)(F)F)c1)c1ccco1 (configuration not stated)
IC50 [35]: > 50 µM (inactive)
